The target in the test is T1, TRPM7 (Mus musculus, UniProt Q923J1).
T1 construct: expressed in transfected cells; host or cells: HEK-293 tSA (HEK-293T) cells, transient transfection with Lipofectamine 2000
The test can be described thus: PI uptake cell death assay in TRPM7-expressing HEK-293 cells (type of assay from Example 1). It counts as cell-based, murine. The text has this:
The TRPM7 channel provides a pathway for mono- and divalent cations into the cell, and is unique in that it contains a functional C-terminal α-kinase domain. […] The induction of chemical anoxia in host cells such as recombinant HEK293 cells can be used to activate TRPM7. This activation is detectable with the use measurements of cellular calcium accumulation. This is achievable with the use of a fluorescent calcium indicator. Alternatively, this activation can also be measured using radiolabelled Ca2+ (^45Ca^2+) as described previously by Sattler et al. (Sattler et al., 1998) and Aarts et al. (Aarts et al., 2003).
Hoechst 33342 was purchased as a 10 mg/mL solution in water (Molecular Probes Inc., Eugene, Oreg.). Propidium iodide (PI) was purchased as a powder and prepared by dissolving in PBS at 1 mg/mL. PI solutions were stored at 4° C. until use. Hoechst and PI were added directly to cell culture to 5 μg/mL and 10 μg/mL respectively. Cells were incubated at room temperature or at 37° C. for 10 minutes to allow for adequate uptake, and fluorescence observed using a NIKON Eclipse TE2000 inverted microscope and TE-FM Epi-Fluorescence attachment (Nikon Canada).
Untransfected cells or cells transfected with the TRPM7/pTracer or ΔPDZ/pTracer construct were plated onto 24-well plates, 24-hours post-transfection. Untransfected cells were plated at 0.75×10^6 cells/well and transfected cells at 1×10^6 cells/well. The plates were coated with poly-D-lysine to strengthen cell adhesion and to minimize cell loss during washes. Cells were loaded by incubation with 5 μM fluo-3 AM and 0.02% pluronic in HBSS at 37° C. for 30 minutes. Following loading, cells were washed with an aglycaemic HBSS containing, in mM: 20 N-methyl-D-glucamine (NMDG), 121 NaCl, 5 KCl, 10 HEPES acid, 10 HEPES-Na salt, 3 NaHCO3, 1 Na-pyruvate, and 1.8 CaCl2, pH adjusted to 7.4 with HCl. Calcium uptake, as assessed by fluo-3 fluorescence, was measured in response to 0, 5, 10, 15, 20, or 25 mM sodium cyanide (NaCN; Mallinckrodt Baker Inc., Phillipsburg, N.J.) dissolved in aglycaemic HBSS. A 250 mM NaCN stock was prepared in water and stored at room temperature for up to 2 weeks. Measurements of fluo-3 fluorescence were taken over a 2 hour period at 10 minutes intervals at room temperature (22-25° C.). Calcium uptake assays were performed 48 hours post-transfection.
Cell death, as assessed by PI uptake, was examined at the end of the 2 hour calcium uptake assay. Cells were stained with 10 μg/mL PI and PI fluorescence measured using the Fluoroskan microplate reader (λ excitation=590 nm, λ emission=630 nm) and accompanying Ascent software (Thermo Electron Corp.). To obtain a reading of maximal fluorescence (Fmax), 0.5% Triton X-100 was added to each well and allowed to incubate for 20 minutes. Cell death assays were performed 48 hours post-transfection.
Data was entered into Excel (Microsoft, Seattle, Wash.) or SigmaPlot (SPSS Inc., Chicago, Ill.) for analysis. Pooled data are presented as the mean of at least 3 separate experiments±sem. Calcium uptake is expressed as a fraction of baseline uptake: ΔFt=(Ft−Fo)/Fo where Ft is the fluorescence at time t, and Fo is the fluorescence at baseline. Cell death is expressed as a percentage of total cell death: cell death (%)=Ft/Fmax×100 where Ft is the fluorescence at time t and Fmax is the maximal fluorescence obtained by permeabilization with Triton X-100. Concentration-response curves were fit by nonlinear regression with a 4 parameter logistic curve represented by the following equation: y=min+{(max−min)/[1+(x/EC50)n]} where y is the response at concentration x, min is the minimal response, max is the maximal response, EC50 is the concentration required for half-maximal response, and n is the Hill slope. Statistical analysis of data was carried out with a two-tailed Student's t test, or a one-way analysis of variance (ANOVA) followed by post hoc pairwise multiple comparisons testing using the Holm-Sidak method, where appropriate. […]

Where [1] appears, read: Table X, the lower the number, the more potent in protecting against cell death.
The mark [2] stands for this setting: Table X, the lower the number, the more potent.
Setting [3] is: Table Y, commercially available compounds.

The structures appear in SMILES notation.

This is an account of results in patent US9334256B2, “Agents and methods for treating ischemic and other diseases” (NoNO INC., priority 2011, dated 2016).

T1 sequence (Q923J1 whole entry): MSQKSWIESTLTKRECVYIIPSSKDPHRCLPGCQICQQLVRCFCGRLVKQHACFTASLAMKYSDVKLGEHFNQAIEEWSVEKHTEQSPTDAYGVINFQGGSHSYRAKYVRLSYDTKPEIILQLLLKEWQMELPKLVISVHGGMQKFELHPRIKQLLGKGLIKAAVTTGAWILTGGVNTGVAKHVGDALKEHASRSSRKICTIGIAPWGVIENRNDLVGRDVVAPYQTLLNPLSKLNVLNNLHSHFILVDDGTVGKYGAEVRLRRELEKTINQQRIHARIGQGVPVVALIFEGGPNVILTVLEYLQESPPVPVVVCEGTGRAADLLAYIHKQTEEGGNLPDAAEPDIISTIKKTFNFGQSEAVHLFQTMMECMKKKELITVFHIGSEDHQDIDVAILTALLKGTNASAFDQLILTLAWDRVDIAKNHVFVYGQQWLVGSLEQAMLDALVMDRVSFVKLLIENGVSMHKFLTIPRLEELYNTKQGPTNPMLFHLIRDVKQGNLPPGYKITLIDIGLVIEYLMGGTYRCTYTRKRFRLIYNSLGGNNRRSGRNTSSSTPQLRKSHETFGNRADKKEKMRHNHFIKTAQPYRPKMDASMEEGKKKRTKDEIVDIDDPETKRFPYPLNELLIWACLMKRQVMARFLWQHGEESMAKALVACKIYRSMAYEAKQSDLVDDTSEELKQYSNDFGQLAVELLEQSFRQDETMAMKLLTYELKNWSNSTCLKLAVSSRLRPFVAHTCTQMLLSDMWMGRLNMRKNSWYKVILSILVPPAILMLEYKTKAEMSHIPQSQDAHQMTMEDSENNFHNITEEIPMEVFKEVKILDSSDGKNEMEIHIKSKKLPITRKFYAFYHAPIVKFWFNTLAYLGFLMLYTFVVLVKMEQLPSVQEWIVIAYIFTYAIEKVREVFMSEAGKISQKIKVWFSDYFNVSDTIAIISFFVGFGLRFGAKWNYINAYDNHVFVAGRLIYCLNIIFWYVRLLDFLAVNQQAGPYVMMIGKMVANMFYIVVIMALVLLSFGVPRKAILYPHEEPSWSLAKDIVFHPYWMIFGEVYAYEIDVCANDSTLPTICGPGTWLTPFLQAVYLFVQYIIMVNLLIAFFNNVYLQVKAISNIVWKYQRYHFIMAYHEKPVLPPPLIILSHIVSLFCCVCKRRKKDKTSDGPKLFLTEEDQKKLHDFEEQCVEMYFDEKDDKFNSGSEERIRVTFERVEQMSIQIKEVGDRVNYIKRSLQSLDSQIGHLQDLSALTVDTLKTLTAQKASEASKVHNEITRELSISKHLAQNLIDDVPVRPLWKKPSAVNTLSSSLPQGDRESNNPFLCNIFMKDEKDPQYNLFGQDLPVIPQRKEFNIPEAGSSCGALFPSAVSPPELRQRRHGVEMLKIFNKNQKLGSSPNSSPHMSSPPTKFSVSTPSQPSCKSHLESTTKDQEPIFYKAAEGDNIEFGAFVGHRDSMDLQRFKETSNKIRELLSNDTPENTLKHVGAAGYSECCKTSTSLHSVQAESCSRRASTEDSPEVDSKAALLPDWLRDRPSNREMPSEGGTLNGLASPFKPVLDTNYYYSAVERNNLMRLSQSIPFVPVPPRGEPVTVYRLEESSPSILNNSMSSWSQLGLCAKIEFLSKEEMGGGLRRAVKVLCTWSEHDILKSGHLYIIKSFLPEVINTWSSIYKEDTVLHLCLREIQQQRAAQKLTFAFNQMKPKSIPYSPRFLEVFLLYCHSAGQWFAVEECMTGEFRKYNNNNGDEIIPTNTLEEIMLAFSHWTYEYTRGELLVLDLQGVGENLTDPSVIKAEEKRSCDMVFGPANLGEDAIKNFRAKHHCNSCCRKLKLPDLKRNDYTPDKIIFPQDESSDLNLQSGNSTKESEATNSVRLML

As a reminder, the IC50 is the concentration at which inhibition is half-maximal. For the molecule `Cc1cccc2sc(C3=NCCc4ccc(Cl)cc43)c(Cl)c12` [Compound 116], the “Normalized ratio of PI uptake (5 μM)” value under setting [1] stood at 0.788. In addition, under setting [2], the “Normalized ratio of PI uptake (10 μM)” value is on record as 0.358. In addition, the midpoint of inhibition (Table X), the IC50, lay at 4.75 µM.
Consider `COc1ccc2c(c1)C(c1sc3ccccc3c1Cl)NCC2` (centres unmarked) [Compound 124], for which, under setting [1], the “Normalized ratio of PI uptake (5 μM)” value came to 0. For the same molecule, under setting [2], the “Normalized ratio of PI uptake (10 μM)” value is recorded as 0.06. The molecule further came in with an IC50 (Table X) of 1.13 µM.
On the same counts, the results for `Clc1cccc2c1CCNC2c1sc2ccccc2c1Cl` (centres unmarked) [Compound 125] are 0.363, 0.122 and 4.69 µM.
Consider `COc1cc2c(cc1OC)C(c1sc3cc(OC)c(OC)cc3c1Cl)NCC2` (centres unmarked) [Compound 126], for which the “Normalized ratio of PI uptake (5 μM)” value under setting [1] is 0.012. In addition, the “Normalized ratio of PI uptake (10 μM)” value under setting [2] is on record as 0.059. The molecule also came in with an IC50 (Table X) of 1.03 µM.
As to `Cc1cccc2sc(C3NCCc4c(F)cccc43)c(Cl)c12` (centres unmarked) [Compound 127], under setting [1], the “Normalized ratio of PI uptake (5 μM)” value came out at 0.038. Further, under setting [2], the “Normalized ratio of PI uptake (10 μM)” value is 0.044. Also, the IC50 (Table X) turned out to be 0.93 µM.
Turning to `COc1ccc2c(c1)C(c1sc3cccc(C)c3c1Cl)NCC2` (centres unmarked) [Compound 128], the “Normalized ratio of PI uptake (5 μM)” value under setting [1] came to 0.01. Also, the “Normalized ratio of PI uptake (10 μM)” value under setting [2] came out at 0.06. In addition, the IC50 (Table X) turned out to be 0.43 µM.
On the same counts, the results for `CCN1CCc2cc(OC)c(OC)cc2C1c1sc2ccccc2c1Cl` (centres unmarked) [Compound 129] are 0.05, 0.07 and 2.23 µM.
On the same counts, the results for `COc1cc(OC)c2c(C)c(Cc3ccc(Cl)c(Cl)c3)c(=O)[nH]c2c1` [Compound 130] are 0.1, 0.06 and 0.93 µM.
On the same counts, the results for `CCCc1c(Cc2ccc(Cl)c(Cl)c2)c(=O)[nH]c2cc(OC)cc(OC)c12` [Compound 132] are 0.73, 0.1 and 4.46 µM.
As to `Cc1c(Cc2c(F)cccc2Cl)c(=O)[nH]c2cc(O)cc(O)c12` [Compound 133], the “Normalized ratio of PI uptake (5 μM)” value under setting [1] was found to be 0.367. Besides, the “Normalized ratio of PI uptake (10 μM)” value under setting [2] was 0.123. Also, where the note is “Table X”, inhibition was half-maximal at 3.31 µM (IC50).
As to `CCCc1c(Cc2cccc(Cl)c2)c(=O)[nH]c2cc(O)cc(O)c12` [Compound 134], the “Normalized ratio of PI uptake (5 μM)” value under setting [1] was determined as 0.564. The “Normalized ratio of PI uptake (10 μM)” value under setting [2] was determined as 0.305.
Regarding `CCCc1c(Cc2ccc(Cl)c(Cl)c2)c(=O)[nH]c2cc(O)cc(O)c12` [Compound 136], under setting [1], the “Normalized ratio of PI uptake (5 μM)” value was determined as 0.534. Moreover, under setting [2], the “Normalized ratio of PI uptake (10 μM)” value came out at 0.238. Besides, for the setting “Table X”, it took 18.4 µM to reach half-maximal inhibition (IC50).
On the same counts, the results for `Cc1c(Cc2c(Cl)cccc2Cl)c(=O)[nH]c2cc(O)cc(O)c12` [Compound 137] are 0.575, 0.296 and 8.5 µM.
Regarding `COc1cc(OC)c2c(C)c(Cc3ccc(F)cc3)c(=O)[nH]c2c1` [Compound 138], under setting [1], the “Normalized ratio of PI uptake (5 μM)” value amounted to 0.034. Under setting [2], the “Normalized ratio of PI uptake (10 μM)” value was found to be 0.026. Where the note is “Table X”, it took 0.47 µM to reach half-maximal inhibition (IC50).
On the same counts, the results for `Cc1c(Cc2cccc(Cl)c2)c(=O)[nH]c2cc(O)cc(O)c12` [Compound 140] are 0.487, 0.062 and 11.1 µM.
`O=C(c1sc2ccccc2c1Cl)N(Cc1ccccc1)c1ccccc1` [MCC1879 #5, reference compound]: under setting [3], the “Normalized ratio of PI uptake (5 μM)” value was 0.108, the “Normalized ratio of PI uptake (10 μM)” value worked out at 0.062 and the IC50 came out at 1.77 µM.
On the same counts, the results for `Cc1c(Cc2c(Cl)cccc2Cl)c(=O)oc2cc(O)c(Cl)cc12` [RJF00028SC #11, reference compound] are 0.233, 0.136 and 3.16 µM.
On the same counts, the results for `CCCc1c(Cc2c(F)cccc2Cl)c(=O)oc2cc(O)ccc12` [RJF01538SC #14, reference compound] are 0.16, 0.057 and 2.78 µM.
Regarding `Cc1c(Cc2ccc(F)cc2)c(=O)oc2cc(O)ccc12` [RJF01910SC #10, reference compound], under setting [3], the “Normalized ratio of PI uptake (5 μM)” value turned out to be 0.465, the “Normalized ratio of PI uptake (10 μM)” value is reported as 0.261 and 4.15 µM corresponded to half-maximal inhibition (IC50).
On the same counts, the results for `Cc1c(Cc2ccccc2)c(=O)oc2c(CN(C)C)c(O)ccc12` [STOCK1N- 36829 #3, reference compound] are 0.262, 0.102 and 4.72 µM.
On the same counts, the results for `Cc1c(Cc2ccccc2)c(=O)oc2cc(O)cc(O)c12` [STOCK1N- 70089 #1, reference compound] are 0.181, 0.005 and 3.16 µM.
For the molecule `CCN(CC)Cc1c(O)ccc2c(C)c(Cc3ccccc3)c(=O)oc12` [STOCK4S- 10213 #1, reference compound], under setting [3], the “Normalized ratio of PI uptake (5 μM)” value is on record as 0.398, the “Normalized ratio of PI uptake (10 μM)” value turned out to be 0.242 and the IC50 turned out to be 4.3 µM.
On the same counts, the results for `Cc1c(Cc2ccccc2)c(=O)oc2cc(O)c(Cl)cc12` [STOCK6S- 31467 #2, reference compound] are 0.472, 0.1 and 12.6 µM.
With `O=C(NC1CCOc2ccccc21)c1cc2ccccc2[nH]1` (centres unmarked) [T6749380 #12, reference compound], under setting [3], the “Normalized ratio of PI uptake (5 μM)” value was found to be 0.043, the “Normalized ratio of PI uptake (10 μM)” value came to 0.029 and the IC50 turned out to be 2.8 µM.
With `CC1c2ccsc2CCN1C(=O)c1c(Cl)c2ccccc2n1C` (centres unmarked) [T6857127 #7, reference compound], under setting [3], the “Normalized ratio of PI uptake (5 μM)” value is listed as 0, the “Normalized ratio of PI uptake (10 μM)” value worked out at 0 and half-maximal inhibition (IC50) was put at 0.8 µM.
`CC1c2ccsc2CCN1C(=O)c1[nH]c2ccccc2c1Cl` (centres unmarked) [T6899791 #8, reference compound]: under setting [3], the “Normalized ratio of PI uptake (5 μM)” value was 0, the “Normalized ratio of PI uptake (10 μM)” value is listed as 0 and half-maximal inhibition (IC50) was put at 0.7 µM.
